Molecules are shown by their SMILES.

Consider three molecules from patent US5230899A, “Methods and compositions for making liposomes” (SmithKline Beecham Corporation, priority 1991, dated 1993).

Series [1] in a line: Efficiency of encapsulation / entrapment of drugs in DPPC:oleic acid:Arg (1:1:1) liposomes. It is filed as physicochemical. Particulars: 10 mg/ml DPPC:oleic acid:Arg (1:1:1) liposomes.
Procedure: A number of drugs were encapsulated with 10 mg/ml DPPC:oleic acid:[MUT]:1:1) liposomes to illustrate medicament encapsulation for use as a drug delivery system.
Series [2] is described as follows: in vivo. Particulars: rat, iv, 5 mg/kg. As to the method: The bioavailibility of indomethacin in a gel formulation was compared with that of a suspenison of indomethacin, both being compared with an IV dose. Rats were dosed with 5 mg/Kg of indomethacin. Oleic acid, arginine and phosphatide #5 (described above) in the a the ratio 1:1:1 was used to make the gel. […] Blood levels were measured 0-30 hours.

`CNCC(O)c1ccc(OC(=O)C(C)(C)C)c(OC(=O)C(C)(C)C)c1` (stereo not drawn) [Dipivalyl Epinephrine]: the “% Entrapment” value in series [1] (pH 7.1 PBS) is listed as 80%.

With `COc1ccc2c(c1)c(CC(=O)O)c(C)n2C(=O)c1ccc(Cl)cc1` [indomethacin], in series [2], the C0 was 117 µg/mL.

For the molecule `CC(C(=O)O)c1ccc(-c2ccccc2)c(F)c1` (stereo not drawn) [Flurbiprofen], in series [1] (pH 7.8 PBS), the “% Entrapment” value is on record as 90%.
